Experimental data from patent US20230286970A1, “NOVEL OXADIAZOLE-BASED SELECTIVE HDAC6 INHIBITORS” (ITALFARMACO S.P.A., priority 2020, published 2023).

Key:
recombinant human HDAC6 = recombinant human HDAC6 (Homo sapiens (Human), UniProt Q9UBN7); assay: Enzymatic screening, HDAC6 inhibition (fluorogenic FdL_G substrate); format: biochemical
How it was run: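 Enzyme was preincubated with compound (8 doses, triplicate, 1% DMSO) in 25 mM Tris-HCl pH 8, 130 mM NaCl, 0.05% Tween-20, 10% glycerol, with BSA. A FLUOR DE LYS-Green substrate was then added, and fluorescence was read after developer plus 2 μM TSA.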

recombinant human HDAC1 = recombinant human HDAC1 (Homo sapiens (Human), UniProt Q13547); assay: Enzymatic screening, HDAC1 inhibition (fluorogenic FdL_G substrate); format: biochemical
Chain of recombinant human HDAC1 (Q13547 whole entry): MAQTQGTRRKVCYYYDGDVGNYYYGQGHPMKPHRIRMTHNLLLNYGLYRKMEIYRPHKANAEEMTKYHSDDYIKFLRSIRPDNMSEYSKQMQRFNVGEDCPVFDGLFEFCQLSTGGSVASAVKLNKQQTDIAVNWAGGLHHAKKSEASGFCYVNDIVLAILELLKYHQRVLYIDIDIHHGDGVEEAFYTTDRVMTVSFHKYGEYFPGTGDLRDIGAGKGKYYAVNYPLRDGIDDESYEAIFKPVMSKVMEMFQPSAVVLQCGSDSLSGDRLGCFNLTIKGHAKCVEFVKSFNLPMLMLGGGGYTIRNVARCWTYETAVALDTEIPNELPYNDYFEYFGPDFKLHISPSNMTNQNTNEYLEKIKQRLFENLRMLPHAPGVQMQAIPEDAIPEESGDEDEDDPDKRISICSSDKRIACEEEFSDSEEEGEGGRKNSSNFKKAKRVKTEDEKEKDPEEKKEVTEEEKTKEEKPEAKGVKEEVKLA
How it was run: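 Recombinant human HDAC1 inhibition was measured fluorometrically using the FLUOR DE LYS-Green (FdL_G) substrate. Compounds at 8 doses (1% DMSO final) in Tris-HCl pH 8 buffer with NaCl, Tween-20 and glycerol were preincubated in triplicate with enzyme and 1 mg/mL BSA, then given substrate. Developer I plus 2 μM TSA was added, and fluorescence read after 25 minutes in the dark.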

Chain of recombinant human HDAC6 (Q9UBN7 whole entry): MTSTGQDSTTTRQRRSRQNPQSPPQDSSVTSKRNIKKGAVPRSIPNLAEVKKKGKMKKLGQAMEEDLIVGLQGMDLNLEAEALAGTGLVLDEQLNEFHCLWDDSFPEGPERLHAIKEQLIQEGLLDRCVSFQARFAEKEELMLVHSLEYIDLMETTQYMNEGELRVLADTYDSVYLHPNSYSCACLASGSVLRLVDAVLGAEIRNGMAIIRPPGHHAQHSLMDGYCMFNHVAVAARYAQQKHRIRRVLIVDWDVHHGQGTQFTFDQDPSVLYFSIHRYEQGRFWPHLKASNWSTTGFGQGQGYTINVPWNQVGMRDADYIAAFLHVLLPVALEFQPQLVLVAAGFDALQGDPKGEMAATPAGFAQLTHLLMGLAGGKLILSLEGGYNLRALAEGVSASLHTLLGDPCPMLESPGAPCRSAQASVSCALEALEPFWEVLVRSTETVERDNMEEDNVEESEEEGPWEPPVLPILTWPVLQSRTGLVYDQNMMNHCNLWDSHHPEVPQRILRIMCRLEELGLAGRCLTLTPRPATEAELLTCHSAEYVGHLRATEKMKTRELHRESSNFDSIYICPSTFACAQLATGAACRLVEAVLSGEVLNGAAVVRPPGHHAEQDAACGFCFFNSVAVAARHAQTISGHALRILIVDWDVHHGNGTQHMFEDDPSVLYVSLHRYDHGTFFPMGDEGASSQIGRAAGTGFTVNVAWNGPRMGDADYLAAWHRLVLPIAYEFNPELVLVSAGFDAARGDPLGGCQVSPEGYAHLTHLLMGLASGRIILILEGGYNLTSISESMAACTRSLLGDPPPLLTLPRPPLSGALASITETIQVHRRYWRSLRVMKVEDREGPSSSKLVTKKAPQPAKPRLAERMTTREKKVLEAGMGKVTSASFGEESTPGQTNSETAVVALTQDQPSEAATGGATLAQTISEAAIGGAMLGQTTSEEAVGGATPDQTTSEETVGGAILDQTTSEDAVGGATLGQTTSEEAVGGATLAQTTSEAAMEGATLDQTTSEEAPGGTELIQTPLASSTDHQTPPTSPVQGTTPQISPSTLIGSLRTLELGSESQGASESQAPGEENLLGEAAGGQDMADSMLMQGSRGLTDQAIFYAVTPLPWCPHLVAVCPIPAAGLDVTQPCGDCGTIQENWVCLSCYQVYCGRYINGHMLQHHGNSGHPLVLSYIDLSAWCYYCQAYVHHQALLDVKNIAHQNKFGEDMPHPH

Compound	IC50 (recombinant human HDAC6) [nM]	IC50 (recombinant human HDAC1) [nM]
CCCCC(c1ccc(-c2nnc(C(F)F)o2)cc1)n1cc(-c2cccc(NC(=O)N3CCOCC3)c2)nn1 (centres unmarked) [compound 244, N-(3-(1-(1-(4-(5-(difluoromethyl)-1,3,4-oxadiazol-2-yl)phenyl)pentyl)-1H-1,2,3-triazol-4-yl)phenyl)morpholine-4-carboxamide]	240	> 200000
FC(F)c1nnc(-c2ccc(Cn3nnc(-c4cccc(-c5ccccc5)c4)n3)cc2)o1 [compound 246, 2-(4-((5-([1,1′-biphenyl]-3-yl)-2H-tetrazol-2-yl)methyl)phenyl)-5-(difluoromethyl)-1,3,4-oxadiazole]	266	> 200000
FC(F)c1nnc(-c2ccc(Cn3nnc(Cc4ccccn4)n3)cc2)o1 [compound 251, 2-(difluoromethyl)-5-(4-((5-(pyridin-2-ylmethyl)-2H-tetrazol-2-yl)methyl)phenyl)-1,3,4-oxadiazole]	298	> 200000
Cn1c(N)nc2cc(-c3nnn(Cc4ncc(-c5nnc(C(F)F)o5)cn4)n3)ccc21 [compound 252, 5-(2-((5-(5-(difluoromethyl)-1,3,4-oxadiazol-2-yl)pyrimidin-2-yl)methyl)-2H-tetrazol-5-yl)-1-methyl-1H-benzo[d]imidazol-2-amine]	27	> 200000
CN(Cc1ccncc1)Cc1ccc(-c2nc(Cc3c(F)cc(-c4nnc(C(F)F)o4)cc3F)no2)cc1 [compound 254, N-(4-(3-(4-(5-(difluoromethyl)-1,3,4-oxadiazol-2-yl)-2,6-difluorobenzyl)-1,2,4-oxadiazol-5-yl)benzyl)-N-methyl-1-(pyridin-4-yl)methanamine]	361	> 200000
CC(=O)N1CCC(c2nnn(Cc3ccc(-c4nnc(C(F)F)o4)cc3)n2)CC1 [compound 257, 1-(4-(2-(4-(5-(difluoromethyl)-1,3,4-oxadiazol-2-yl)benzyl)-2H-tetrazol-5-yl)piperidin-1-yl)ethan-1-one]	395	> 200000
O=C(Nc1cc(-c2nnn(Cc3ccc(-c4nnc(C(F)F)o4)cc3)n2)ccc1Sc1ccccc1)N1CCOCC1 [compound 258, N-(5-(2-(4-(5-(difluoromethyl)-1,3,4-oxadiazol-2-yl)benzyl)-2H-tetrazol-5-yl)-2-(phenylthio)phenyl)morpholine-4-carboxamide]	410	> 200000
CN(Cc1ccc(-c2nc(Cc3ccc(-c4nnc(C(F)F)o4)cc3)no2)cc1)C(=O)C(F)F [compound 259, N-(4-(3-(4-(5-(difluoromethyl)-1,3,4-oxadiazol-2-yl)benzyl)-1,2,4-oxadiazol-5-yl)benzyl)-2,2-difluoro-N-methylacetamide]	439	> 200000
CC(C)(C)OC(=O)N1CCc2[nH]c(-c3cccc(-c4nnn(Cc5ccc(-c6nnc(C(F)F)o6)cc5)n4)c3)nc2C1 [compound 272, tert-butyl 2-(3-(2-(4-(5-(difluoromethyl)-1,3,4-oxadiazol-2-yl)benzyl)-2H-tetrazol-5-yl)phenyl)-1,4,6,7-tetrahydro-5H-imidazo[4,5-c]pyridine-5-carboxylate]	407	> 200000
FC(F)c1nnc(-c2ccc(Cn3nnc(-c4cccc(-c5nc6c([nH]5)CCNC6)c4)n3)nc2)o1 [compound 276, 2-(difluoromethyl)-5-(6-((5-(3-(4,5,6,7-tetrahydro-1H-imidazo[4,5-c]pyridin-2-yl)phenyl)-2H-tetrazol-2-yl)methyl)pyridin-3-yl)-1,3,4-oxadiazole]	9	165000
Cn1c(Sc2c(F)cc(-c3nnc(C(F)F)o3)cc2F)nnc1-c1ccc(N)nc1 [compound 284, 5-(5-((4-(5-(difluoromethyl)-1,3,4-oxadiazol-2-yl)-2,6-difluorophenyl)thio)-4-methyl-4H-1,2,4-triazol-3-yl)pyridin-2-amine]	323	> 200000
Cn1c(Sc2ccc(-c3nnc(C(F)F)o3)cc2)nnc1-c1ccc(N)nc1 [compound 285, 5-(5-((4-(5-(difluoromethyl)-1,3,4-oxadiazol-2-yl)phenyl)thio)-4-methyl-4H-1,2,4-triazol-3-yl)pyridin-2-amine]	491	> 200000
FC(F)c1nnc(-c2ccc(Cn3nnnc3-c3ncccn3)cc2)o1 [compound 287, 2-(difluoromethyl)-5-(4-((5-(pyrimidin-2-yl)-1H-tetrazol-1-yl)methyl)phenyl)-1,3,4-oxadiazole]	446	> 200000
Nc1ccc(-c2nnnn2Cc2ncc(-c3nnc(C(F)F)o3)cn2)cn1 [compound 290, 5-(1-((5-(5-(difluoromethyl)-1,3,4-oxadiazol-2-yl)pyrimidin-2-yl)methyl)-1H-tetrazol-5-yl)pyridin-2-amine]	68	> 200000

The next lines start with the values.

IC50 (recombinant human HDAC6) [nM]	IC50 (recombinant human HDAC1) [nM]	Compound
216	> 200000	Cc1nc(F)ccc1-c1cn(Cc2ccc(-c3nnc(C(F)F)o3)cc2)nn1 [compound 241, 2-(difluoromethyl)-5-(4-((4-(6-fluoro-2-methylpyridin-3-yl)-1H-1,2,3-triazol-1-yl)methyl)phenyl)-1,3,4-oxadiazole]
264	> 200000	CC1(C)NC(=O)c2cc(-c3cn(Cc4ccc(-c5nnc(C(F)F)o5)cc4)nn3)ccc21 [compound 245, 6-(1-(4-(5-(difluoromethyl)-1,3,4-oxadiazol-2-yl)benzyl)-1H-1,2,3-triazol-4-yl)-3,3-dimethylisoindolin-1-one]
275	> 200000	Fc1cccc(-c2cn(Cc3ccc(-c4nnc(C(F)F)o4)cc3)nn2)c1 [compound 248, 2-(difluoromethyl)-5-(4-((4-(3-fluorophenyl)-1H-1,2,3-triazol-1-yl)methyl)phenyl)-1,3,4-oxadiazole]
277	> 200000	CN(C)c1nc2cc(-c3nnn(Cc4ccc(-c5nnc(C(F)F)o5)cc4)n3)ccc2o1 [compound 249, 5-(2-(4-(5-(difluoromethyl)-1,3,4-oxadiazol-2-yl)benzyl)-2H-tetrazol-5-yl)-N,N-dimethylbenzo[d]oxazol-2-amine]
393	> 200000	FC(F)c1nnc(-c2ccc(Cn3nnc(C4(c5ccccc5)CC4)n3)cc2)o1 [compound 256, 2-(difluoromethyl)-5-(4-((5-(1-phenylcyclopropyl)-2H-tetrazol-2-yl)methyl)phenyl)-1,3,4-oxadiazole]
488	> 200000	NC(=O)c1cccc(-c2nc(Cc3ccc(-c4nnc(C(F)F)o4)cc3)no2)c1 [compound 262, 3-(3-(4-(5-(difluoromethyl)-1,3,4-oxadiazol-2-yl)benzyl)-1,2,4-oxadiazol-5-yl)benzamide]
254	> 200000	CC(C)(C)OC(=O)N1CCC2(CC1)Nc1cc(-c3cn(Cc4ccc(-c5nnc(C(F)F)o5)cc4)nn3)ccc1NC2=O [compound 268, tert-butyl 7′-(1-(4-(5-(difluoromethyl)-1,3,4-oxadiazol-2-yl)benzyl)-1H-1,2,3-triazol-4-yl)-3′-oxo-3′,4′-dihydro-1′H-spiro[piperidine-4,2′-quinoxaline]-1-carboxylate]
43	> 200000	O=C1Nc2ccc(-c3cn(Cc4ccc(-c5nnc(C(F)F)o5)cc4)nn3)cc2NC12CCNCC2 [compound 271, 7′-(1-(4-(5-(difluoromethyl)-1,3,4-oxadiazol-2-yl)benzyl)-1H-1,2,3-triazol-4-yl)-1′,4′-dihydro-3′H-spiro[piperidine-4,2′-quinoxalin]-3′-one]
72	166000	O=C1Nc2cc(-c3cn(Cc4ccc(-c5nnc(C(F)F)o5)cc4)nn3)ccc2NC12CCNCC2 [compound 277, 6′-(1-(4-(5-(difluoromethyl)-1,3,4-oxadiazol-2-yl)benzyl)-1H-1,2,3-triazol-4-yl)-1′,4′-dihydro-3′H-spiro[piperidine-4,2′-quinoxalin]-3′-one]
286	> 200000	CC(C)(C)OC(=O)N1CCC2(CC1)Nc1ccc(-c3cn(Cc4ccc(-c5nnc(C(F)F)o5)cc4)nn3)cc1NC2=O [compound 279, tert-butyl 6′-(1-(4-(5-(difluoromethyl)-1,3,4-oxadiazol-2-yl)benzyl)-1H-1,2,3-triazol-4-yl)-3′-oxo-3′,4′-dihydro-1′H-spiro[piperidine-4,2′-quinoxaline]-1-carboxylate]
89	> 200000	FC(F)c1nnc(-c2ccc(Cn3cc(-c4cnc5cccnn45)nn3)cc2)o1 [compound 280, 2-(difluoromethyl)-5-(4-((4-(imidazo[1,2-b]pyridazin-3-yl)-1H-1,2,3-triazol-1-yl)methyl)phenyl)-1,3,4-oxadiazole]
200	> 200000	CN(C)c1ccc(-c2cn(Cc3ccc(-c4nnc(C(F)F)o4)cc3)nn2)cc1 [compound 281, 4-(1-(4-(5-(difluoromethyl)-1,3,4-oxadiazol-2-yl)benzyl)-1H-1,2,3-triazol-4-yl)-N,N-dimethylaniline]
282	> 200000	CN(Cc1ccncc1)Cc1ccc(-c2cn(Cc3ccc(-c4nnc(C(F)F)o4)cc3)nn2)cc1 [compound 282, N-(4-(1-(4-(5-(difluoromethyl)-1,3,4-oxadiazol-2-yl)benzyl)-1H-1,2,3-triazol-4-yl)benzyl)-N-methyl-1-(pyridin-4-yl)methanamine]
203	> 200000	FC(F)c1nnc(-c2ccc(Cn3nnnc3-c3cccc(-n4cccn4)c3)cc2)o1 [compound 289, 2-(4-((5-(3-(1H-pyrazol-1-yl)phenyl)-1H-tetrazol-1-yl)methyl)phenyl)-5-(difluoromethyl)-1,3,4-oxadiazole]
